Measured values published in patent US10138227B2, “Heteroaryl substituted pyridines and methods of use” (AbbVie S.à.r.l., priority 2016, dated 2018).

Tests used:
Type in all cases: cell-based
[1] = molecular target: T1, CFTR-S549N (Homo sapiens, UniProt P13569, S549N); assay: YFP-halide influx assay for the CFTR-S549N
T1 construct: expressed in transfected cells; HEK293 with plasmid vectors inferred from the G551D protocol, to which the assay is called similar
From the text: (§1) The YFP halide influx assay measured the functionality of the cystic fibrosis Transmembrane Conductance regulator (CFTR) channels. The assay was used to evaluate the capacity of compounds to increase the channel opening of existing mutant CFTR channels in the membrane. It makes use of the observation that the yellow fluorescent protein (YFP) variant YFP H148Q, I152L, F47L has its fluorescence substantially quenched by halide ions like Cl^− and I^− (Galietta, L. J. V., Haggie, P. M., Verkman, A. S., 2001. Green fluorescent protein-based halide indicators with improved chloride and iodide affinities. FEBS Lett. 499, 220-224. doi:10.1016/S0014-5793(01)02561-3).
(§2) For this purpose, HEK293-cells were seeded in 96 well plates. During seeding, the cells were reverse-transfected with plasmid vectors that direct the expression of the CFTR G551D mutant and of the YFP reporter. Cells were incubated at 37° C., 5% CO2 for 24 hours so as to allow for sufficient expression of the CFTR protein.
(§3) The I^−-induced quenching of fluorescence was recorded immediately after injection of I^− for 7 seconds. The capacity of a compound to increase the channel opening was directly correlated with the decrease in fluorescence, and was expressed as (1-(fluorescence after 7 seconds (F)/fluorescence before injection (F0))) and an EC50 was derived from a (1−F/F0) vs compound concentration plot.
(§4) Similar YHA assays were developed for other channel gating defective or channel conductance defective CFTR mutants to determine effect of compound on channel activity. Examples of mutants are G178R, G1349D, S549N, R117H, R334W. This assay is also used for additional class I CFTR mutants, including G542X, W1282X; class II mutants including N1303K, and for class III mutants including S1251N; or wild-type CFTR.

[2] = molecular target: T2, CFTR-R117H (Homo sapiens, UniProt P13569, R117H); assay: YFP-halide influx assay for the CFTR-R117H
T2 construct: expressed in transfected cells; HEK293 with plasmid vectors inferred from the G551D protocol, to which the assay is called similar
From the text: as §1, §2, §3, §4

[3] = molecular target: T3, CFTR G551D mutant (Homo sapiens, UniProt P13569, G551D); assay: YFP-halide influx assay for the CFTR-G551D mutation; conditions: HEK293 cells expressing CFTR G551D and YFP reporter; forskolin 10.67 μM
T3 construct: expressed in transfected cells; host or cells: HEK293 cells, reverse-transfected with plasmid vectors
From the text: as §1, §2, §3

[4] = molecular target: T4, CFTR-G178R (Homo sapiens, UniProt P13569, G178R); assay: YFP-halide influx assay for the CFTR-G178R
T4 construct: expressed in transfected cells; HEK293 with plasmid vectors inferred from the G551D protocol, to which the assay is called similar
From the text: as §1, §2, §3, §4

[5] = molecular target: T5, CFTR ΔF508 mutant (Homo sapiens, UniProt P13569, DEL508-508); assay: YFP-halide influx assay for the CFTR-ΔF508 mutation; conditions: CFBE41o- cells expressing CFTR ΔF508 and YFP reporter, forskolin 10.67 μM; for EC50: (1-F/F0) vs concentration
T5 construct: expressed in transfected cells; host or cells: CFBE41o- cells transduced with adenoviral vectors
From the text: as §1, with “channels in the cystic fibrosis bronchial epithelium cell line CFBE41o-.” for “channels.”, “open probability” for “channel opening”, “existing” for “existing mutant”, “doi:10.1016/S0014-5793(01)02561-3; Nagai, T., Ibata, K., Park, E. S., Kubota, M., Mikoshiba, K., Miyawaki, A., 2002. A variant of yellow fluorescent protein with fast and efficient maturation for cell-biological applications. Nat. Biotechnol. 20, 87-90. doi:10.1038/nbt0102-87).” for “doi:10.1016/S0014-5793(01)02561-3).”
For this purpose, CFBE410-cells were seeded in 384 well plates (3000 CFBE cells/well). One day after seeding, the CFBE cells were transduced with adenoviral vectors that direct the expression of the CFTR ΔF508 mutant and of the YFP reporter. Cells were incubated at 27° C., 5% CO2 for 24 hours so as to allow for the proper folding and migration to the membrane of the CFTR channel or treated with a CFTR modulator during 24 hours at 37° C.
as §3, with “I-induced” for “I^−-induced”, “recorded on an” for “recorded”, “iodide” for “I^−”, “2 minutes on an FDSS/μCell (Hamamatsu).” for “7 seconds.”, “36” for “7”, “(1-F/F0)” for “(1−F/F0)”

[6] = molecular target: T6, CFTR-G1349D (Homo sapiens, UniProt P13569, G1349D); assay: YFP-halide influx assay for the CFTR-G1349D
T6 construct: expressed in transfected cells; HEK293 with plasmid vectors inferred from the G551D protocol, to which the assay is called similar
From the text: as §1, §2, §3, §4

T3 sequence (P13569 whole entry G551D): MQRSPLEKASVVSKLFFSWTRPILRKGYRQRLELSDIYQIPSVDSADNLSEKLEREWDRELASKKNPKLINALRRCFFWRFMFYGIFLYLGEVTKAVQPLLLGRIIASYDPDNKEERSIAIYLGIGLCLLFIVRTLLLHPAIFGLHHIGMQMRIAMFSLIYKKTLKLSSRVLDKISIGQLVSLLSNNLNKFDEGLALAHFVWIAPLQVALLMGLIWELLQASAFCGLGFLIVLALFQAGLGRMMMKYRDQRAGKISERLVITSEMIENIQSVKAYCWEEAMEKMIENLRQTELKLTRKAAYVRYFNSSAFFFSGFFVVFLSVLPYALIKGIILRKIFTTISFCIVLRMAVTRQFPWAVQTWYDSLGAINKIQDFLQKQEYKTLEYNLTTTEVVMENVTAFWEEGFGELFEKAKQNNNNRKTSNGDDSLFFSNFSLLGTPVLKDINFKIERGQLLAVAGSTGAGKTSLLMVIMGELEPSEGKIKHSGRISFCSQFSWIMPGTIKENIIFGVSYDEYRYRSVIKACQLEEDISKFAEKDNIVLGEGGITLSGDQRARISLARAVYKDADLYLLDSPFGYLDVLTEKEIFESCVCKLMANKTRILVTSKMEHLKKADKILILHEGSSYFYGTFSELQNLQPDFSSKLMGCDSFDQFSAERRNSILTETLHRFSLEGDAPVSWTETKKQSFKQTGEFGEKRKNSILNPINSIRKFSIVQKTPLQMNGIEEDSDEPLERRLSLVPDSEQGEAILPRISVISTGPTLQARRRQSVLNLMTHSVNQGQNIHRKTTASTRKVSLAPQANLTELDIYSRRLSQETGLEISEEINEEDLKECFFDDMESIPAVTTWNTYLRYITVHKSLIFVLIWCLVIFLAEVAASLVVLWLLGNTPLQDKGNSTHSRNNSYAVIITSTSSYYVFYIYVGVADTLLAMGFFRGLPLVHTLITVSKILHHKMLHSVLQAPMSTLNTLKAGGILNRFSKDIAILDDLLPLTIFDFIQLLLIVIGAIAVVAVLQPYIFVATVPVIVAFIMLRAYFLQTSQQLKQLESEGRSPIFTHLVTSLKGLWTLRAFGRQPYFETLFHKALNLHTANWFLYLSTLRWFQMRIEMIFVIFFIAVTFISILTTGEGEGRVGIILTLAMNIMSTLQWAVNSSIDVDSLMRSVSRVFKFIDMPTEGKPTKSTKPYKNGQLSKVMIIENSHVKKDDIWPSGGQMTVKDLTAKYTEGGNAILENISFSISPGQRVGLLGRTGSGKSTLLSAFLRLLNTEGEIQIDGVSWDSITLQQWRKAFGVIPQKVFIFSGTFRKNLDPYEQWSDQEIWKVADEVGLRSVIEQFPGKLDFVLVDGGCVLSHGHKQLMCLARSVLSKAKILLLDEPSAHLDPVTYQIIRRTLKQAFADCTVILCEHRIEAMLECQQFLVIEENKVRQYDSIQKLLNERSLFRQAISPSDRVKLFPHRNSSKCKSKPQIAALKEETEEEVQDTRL
T5 sequence (P13569 with tags, fused parts or gaps DEL508-508): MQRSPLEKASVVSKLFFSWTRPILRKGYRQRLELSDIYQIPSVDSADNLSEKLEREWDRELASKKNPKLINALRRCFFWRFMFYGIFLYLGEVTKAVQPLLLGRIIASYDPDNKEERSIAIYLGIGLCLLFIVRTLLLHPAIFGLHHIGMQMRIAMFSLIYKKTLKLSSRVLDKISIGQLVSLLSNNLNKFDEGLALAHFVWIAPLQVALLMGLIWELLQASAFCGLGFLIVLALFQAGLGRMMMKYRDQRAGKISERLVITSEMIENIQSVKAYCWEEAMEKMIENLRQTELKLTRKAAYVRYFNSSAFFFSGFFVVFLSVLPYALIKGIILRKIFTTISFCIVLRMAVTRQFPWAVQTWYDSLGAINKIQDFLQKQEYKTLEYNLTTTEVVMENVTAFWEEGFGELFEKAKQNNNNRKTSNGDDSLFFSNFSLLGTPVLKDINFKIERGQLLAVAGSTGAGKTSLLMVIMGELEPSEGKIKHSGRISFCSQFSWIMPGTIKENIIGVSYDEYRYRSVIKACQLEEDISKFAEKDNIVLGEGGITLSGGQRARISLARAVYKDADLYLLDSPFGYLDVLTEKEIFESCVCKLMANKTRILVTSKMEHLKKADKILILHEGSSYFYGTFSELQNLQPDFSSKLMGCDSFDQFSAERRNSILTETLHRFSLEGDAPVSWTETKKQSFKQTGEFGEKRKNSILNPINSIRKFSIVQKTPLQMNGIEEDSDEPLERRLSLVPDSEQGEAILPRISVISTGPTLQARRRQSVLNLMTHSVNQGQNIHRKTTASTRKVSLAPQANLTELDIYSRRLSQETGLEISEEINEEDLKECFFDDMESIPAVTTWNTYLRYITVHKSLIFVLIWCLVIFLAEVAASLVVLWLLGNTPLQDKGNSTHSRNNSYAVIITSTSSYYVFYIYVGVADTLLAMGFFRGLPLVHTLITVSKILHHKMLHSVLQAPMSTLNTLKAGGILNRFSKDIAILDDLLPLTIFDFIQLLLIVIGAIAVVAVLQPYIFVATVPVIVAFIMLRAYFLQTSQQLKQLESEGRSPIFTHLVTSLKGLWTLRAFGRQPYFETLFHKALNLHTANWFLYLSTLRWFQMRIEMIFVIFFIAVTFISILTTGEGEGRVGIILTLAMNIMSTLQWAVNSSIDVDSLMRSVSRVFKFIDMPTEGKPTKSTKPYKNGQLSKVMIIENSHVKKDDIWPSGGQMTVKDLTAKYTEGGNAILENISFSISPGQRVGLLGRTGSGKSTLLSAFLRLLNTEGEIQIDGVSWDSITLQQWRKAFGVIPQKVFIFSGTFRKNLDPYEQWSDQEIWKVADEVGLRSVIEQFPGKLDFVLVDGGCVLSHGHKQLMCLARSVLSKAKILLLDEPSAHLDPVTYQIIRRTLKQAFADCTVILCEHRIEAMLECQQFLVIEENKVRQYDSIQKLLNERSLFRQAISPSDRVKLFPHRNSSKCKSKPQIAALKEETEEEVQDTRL
T2 sequence (P13569 whole entry R117H): as the sequence (P13569 whole entry G551D) above, with R117H, D551G counted along it
T1 sequence (P13569 whole entry S549N): as the sequence (P13569 whole entry G551D) above, with S549N, D551G counted along it
T6 sequence (P13569 whole entry G1349D): as the sequence (P13569 whole entry G551D) above, with D551G, G1349D counted along it
T4 sequence (P13569 whole entry G178R): as the sequence (P13569 whole entry G551D) above, with G178R, D551G counted along it

Structure (SMILES)	% Activation [5]	EC50 [5]	also measured
Nc1cc(S(=O)(=O)c2ccc(OC(F)(F)F)cc2)cnc1-c1ncc(CO)s1 [Compound 5, (2-{3-amino-5-[4-(trifluoromethoxy)benzene-1-sulfonyl]pyridin-2-yl}-1,3-thiazol-5-yl)methanol]	58.29%	> 0.667 µM	% Activation [3]: 0.3%; EC50 [3]: > 10 µM
Nc1cc(S(=O)(=O)c2ccc(OC(F)(F)F)cc2)cnc1-c1nc(CC2CC2)no1 [Compound 50, 2-[3-(cyclopropylmethyl)-1,2,4-oxadiazol-5-yl]-5-[4-(trifluoromethoxy)benzene-1-sulfonyl]pyridin-3-amine]	45.59%	> 1.66 µM	
Nc1cc(S(=O)(=O)c2ccc(OC(F)(F)F)cc2)cnc1-c1nc(CC2CCCO2)no1 (centres unmarked) [Compound 51, 2-{3-[(oxolan-2-yl)methyl]-1,2,4-oxadiazol-5-yl}-5-[4-(trifluoromethoxy)benzene-1-sulfonyl]pyridin-3-amine]	23.23%	> 3.32 µM	
Nc1cc(S(=O)(=O)c2ccc(OC(F)(F)F)cc2)cnc1-c1nc(C2CC2)no1 [Compound 52, 2-(3-cyclopropyl-1,2,4-oxadiazol-5-yl)-5-[4-(trifluoromethoxy)benzene-1-sulfonyl]pyridin-3-amine]	3.42%	> 4.99 µM	
Nc1cc(S(=O)(=O)c2ccc(OC(F)(F)F)cc2)cnc1-c1nc(C2CCOC2)no1 (centres unmarked) [Compound 53, 2-[3-(oxolan-3-yl)-1,2,4-oxadiazol-5-yl]-5-[4-(trifluoromethoxy)benzene-1-sulfonyl]pyridin-3-amine]	15.28%	> 4.99 µM	
CC(C)(C)c1noc(-c2ncc(S(=O)(=O)c3ccc(OC(F)(F)F)cc3)cc2N)n1 [Compound 54, 2-(3-tert-butyl-1,2,4-oxadiazol-5-yl)-5-[4-(trifluoromethoxy)benzene-1-sulfonyl]pyridin-3-amine]	12.02%	> 4.99 µM	
COCCc1noc(-c2ncc(S(=O)(=O)c3ccc(OC(F)(F)F)cc3)cc2N)n1 [Compound 55, 2-[3-(2-methoxyethyl)-1,2,4-oxadiazol-5-yl]-5-[4-(trifluoromethoxy)benzene-1-sulfonyl]pyridin-3-amine]	2.76%	> 4.99 µM	
Nc1cc(S(=O)(=O)c2cccc(OC(F)(F)F)c2)cnc1-c1nnc(CO)o1 [Compound 58, (5-{3-amino-5-[3-(trifluoromethoxy)benzene-1-sulfonyl]pyridin-2-yl}-1,3,4-oxadiazol-2-yl)methanol]	104.91%	0.00351 µM	
Nc1cc(S(=O)(=O)c2ccccc2OC(F)(F)F)cnc1-c1nnc(CO)o1 [Compound 59, (5-{3-amino-5-[2-(trifluoromethoxy)benzene-1-sulfonyl]pyridin-2-yl}-1,3,4-oxadiazol-2-yl)methanol]	106.56%	0.00425 µM	
CN(Cc1ccccc1)S(=O)(=O)c1cnc(-c2nnc(CO)o2)c(N)c1 [Compound 60, 5-amino-N-benzyl-6-[5-(hydroxymethyl)-1,3,4-oxadiazol-2-yl]-N-methylpyridine-3-sulfonamide]	122.9%	0.0153 µM	
Nc1cc(S(=O)(=O)c2ccccc2)cnc1-c1nnc(CO)o1 [Compound 61, {5-[3-amino-5-(benzenesulfonyl)pyridin-2-yl]-1,3,4-oxadiazol-2-yl}methanol]	97.36%	0.0974 µM	
Nc1c(-c2nnc(CO)o2)ncc(S(=O)(=O)c2ccc(OC(F)(F)F)cc2)c1Br [Compound 66, (5-{3-amino-4-bromo-5-[4-(trifluoromethoxy)benzene-1-sulfonyl]pyridin-2-yl}-1,3,4-oxadiazol-2-yl)methanol]	<1.18%		

Now from value to molecule, other results behind:

% Activation [5]	EC50 [5]	Structure (SMILES)	also measured
120.51%	0.00236 µM	CC(O)(c1nnc(-c2ncc(S(=O)(=O)c3ccc(OC(F)(F)F)cc3)cc2N)o1)C(F)(F)F (centres unmarked) [Compound 3, 2-(5-{3-amino-5-[4-(trifluoromethoxy)benzene-1-sulfonyl]pyridin-2-yl}-1,3,4-oxadiazol-2-yl)-1,1,1-trifluoropropan-2-ol]	% Activation [1]: 56.3%; EC50 [1]: 0.0559 µM; % Activation [2]: 89.0%; EC50 [2]: 0.0355 µM; % Activation [3]: 49.0%; EC50 [3]: 0.181 µM; % Activation [4]: 57.4%; EC50 [4]: 1.44 µM; % Activation [6]: 58.6%; EC50 [6]: 0.0449 µM
93.64%	0.00241 µM	Nc1c(-c2nnc(CO)o2)ncc(S(=O)(=O)c2ccc(OC(F)(F)F)cc2)c1Cl [Compound 57, (5-{3-amino-4-chloro-5-[4-(trifluoromethoxy)benzene-1-sulfonyl]pyridin-2-yl}-1,3,4-oxadiazol-2-yl)methanol]	
113%	< 0.00044 µM	Nc1cc(S(=O)(=O)c2ccc(C(F)(F)F)cc2)cnc1-c1nnc(CO)s1 [Compound 62, (5-{3-amino-5-[4-(trifluoromethyl)benzene-1-sulfonyl]pyridin-2-yl}-1,3,4-thiadiazol-2-yl)methanol]	
109.95%	< 0.00039 µM	Nc1cc(S(=O)(=O)c2ccc(OC(F)(F)F)cc2)c(Br)nc1-c1nnc(CO)o1 [Compound 63, (5-{3-amino-6-bromo-5-[4-(trifluoromethoxy)benzene-1-sulfonyl]pyridin-2-yl}-1,3,4-oxadiazol-2-yl)methanol]	
122%	< 0.00046 µM	Nc1cc(S(=O)(=O)c2ccc(OC(F)(F)F)cc2)c(Cl)nc1-c1nnc(CO)o1 [Compound 64, (5-{3-amino-6-chloro-5-[4-(trifluoromethoxy)benzene-1-sulfonyl]pyridin-2-yl}-1,3,4-oxadiazol-2-yl)methanol]	
106.55%	< 0.00105 µM	CC(C)c1ccccc1S(=O)(=O)c1cnc(-c2nnc(CO)o2)c(N)c1 [Compound 65, (5-{3-amino-5-[2-(propan-2-yl)benzene-1-sulfonyl]pyridin-2-yl}-1,3,4-oxadiazol-2-yl)methanol]	
